Data on one molecule can be found in patent US20130273649A1, “Culture medium for pluripotent stem cells” (UNIVERSITY OF SOUTHERN CALIFORNIA, priority 2012, published 2013).

One experiment relates to CD1 EpiSCs. The experiment is described as follows: Clonogenicity: colony formation after single-cell deposition of EpiSCs. In kind it is cell-based, mouse. Conditions: 96-well plate, CHIR only. The protocol:
(A) Representative phase-contrast images of CD1 mouse EpiSCs cultured in the indicated conditions. […] (B) Phase-contrast image showing differentiating CD1 mouse EpiSCs at the 2nd passage in GMEM/10% FBS with 2 μM XAV. (C) CD1 mouse EpiSCs were cultured in CHIR/XAV for 7 passages and were subsequently immunostained with indicated antibodies against pluripotency markers. (D) Numbers of undifferentiated colonies formed by day 9 after single-cell deposition of CD1 EpiSCs into 0.1% gelatin-coated 96-well plates and cultured in the conventional mouse ESC medium supplemented with the indicated small molecules or cytokines Results are shown as mean±s.d. of six biological replicates. (E) De novo derivation of mouse EpiSCs. Epiblast tissue (outlined in dashed line) of the E5.75 CD1 mouse embryo was dissected and cultured in CHIR/XAV. The outgrowth formed from the plated epiblast (middle panel) was disaggregated to establish a stable EpiSC line (right panel). Thirteen […] established from 13 plated CD1 mouse embryos. Scale bars, 50 μ[…]). See also FIG. 8. We compared the clonogenicity of EpiSCs cultured in different conditions. […] EpiSC colonies formed in CHIR/XAV were readily expanded to establish stable cell lines. […] As expected, in the CHIR/XAV condition, EpiSCs were readily derived from embryonic day (E) 5.75 embryos of CD1 and 129SvE mice (FIGS. 1E and 8B). […]

A further experiment has as its system β-catenin. As to the kind of experiment: Western blot of nuclear β-catenin in mouse EpiSCs. It is filed as cell-based. To be noted: 3 μM CHIR 12 h. The protocol:
(A) Western blot analysis of cytoplasmic, nuclear and total β-catenin levels in CD1 mouse EpiSCs overexpressing Flag-tagged Axin1 or Axin2. Cells were either untreated or treated with 3 μM CHIR for 12 h. (B) Immunostaining of CD1 mouse EpiSCs overexpressing Flag-tagged Axin2 (C) Co-IP of Flag or β-catenin in CD1 mouse EpiSCs overexpressing empty vector or Flag-tagged Axin2. Cells were treated with 3 μM CHIR for 12 h (D) Immunostaining of ΔNβ-catenin-ERT2-overexpressing CD1 mouse EpiSCs before and after treatment with 1 μM 4-OHT. (E). Western blot analysis of cytoplasmic and nuclear ΔNβ-catenin-ERT2 levels after treatment with 1 μM 4-OHT for 24 h. (F). Phase contrast image of ΔNβ-catenin-ERT2-EpiSCs after 25 passages in basal medium only. (G) qRT-PCR analysis of Oct4, Nanog and Fgf5 mRNA levels in ΔNβ-catenin-ERT2-EpiSCs maintained in basal medium or basal medium plus FGF2/activin for 11 passages. Data represent mean±s.d. of three biological replicates. (H) Phase contrast image of ΔNβ-catenin-ERT2-EpiSCs after treatment with 1 μM 4-OHT for 24 h. […]
Next, we investigated how β-catenin mediates EpiSC self-renewal. […] To determine whether nuclear translocation of β-catenin is affected by Axin, we analyzed β-catenin protein levels in whole-cell, cytoplasmic and nuclear fractions before and after CHIR treatment. […] In Axin2-EpiSCs, Axin2 expression was mainly detected in the cytoplasm (FIG. 6B). […]
A general note: A western blot detects proteins with antibodies after separation by electrophoresis.

A further experiment relates to Axin2. As to the kind of experiment: Western blot of Axin2 in human ESCs. In kind it is cell-based. To be noted: human ESCs treated 24 h.

SMILES strings stand for the structures.

Turning to `Cc1c[nH]c(-c2cnc(NCCNc3ccc(C#N)cn3)nc2-c2ccc(Cl)cc2Cl)n1` [CHIR99021, 6-((2-((4-(2,4-Dichlorophenyl)-5-(4-methyl-1H-imidazol-2-yl)pyrimidin-2-yl)amino)ethyl)amino)nicotinonitrile], in the experiment on CD1 EpiSCs, the “undifferentiated colony formation from single EpiSC” value is reported as “No undifferentiated colonies formed”. In addition, the “nuclear β-catenin protein level” value was “barely detectable” in the experiment with β-catenin (Axin2-EpiSCs); “dramatically increased” in the experiment on β-catenin (vector-EpiSCs and Axin1-EpiSCs). For the same molecule, the “amount of Axin2 protein” value in the experiment on Axin2 was “induced the expression of Axin2”.
